Measured values reported in US12486283B2, “Crystalline salt of eribulin” (priority 2020, dated 2025).
“Also recorded” adds a separate entry of the source. Structures can show the parent of a compound that is named as a salt.

Tests used:
Assay type in all cases: physicochemical
[1] = Stability test: purity / related substances by high-performance liquid chromatography after storage; conditions: 75±5% RH; for purity by high-performance liquid chromatography: stored sealed in amber vial at 40±2° C.
Procedure: (§1) After 2 weeks and 4 weeks of storage, the occurrence and increase of related substances in each sample were evaluated by high-performance liquid chromatography, and changes were confirmed by X-ray powder diffraction analysis and differential scanning calorimetry to evaluate stability.

[2] = Hygroscopicity test by dynamic vapor adsorption and desorption (DVS); conditions: for hygroscopicity compared with amorphous eribulin mesylate: 25° C. and 80% RH; for stability to moisture compared with amorphous eribulin mesylate: DVS hygroscopicity test; for crystalline form after the hygroscopicity test: after the test was completed
Procedure: Eribulin edisylate obtained in Examples 2, 5, and 7 and the amorphous eribulin mesylate, which is the active component of commercially available Halaven, were subjected to hygroscopicity test by repeating moisture adsorption and desorption once at an interval of 5% RH in an isothermal condition of 25° C. and a relative humidity of 2 to 98% using dynamic vapor adsorption and desorption (DVS) (dynamic vapor adsorption, VTI SGA-100, TA Instruments).

[3] = Stability test: properties (appearance) and X-ray powder diffraction analysis after storage; conditions: 40±2° C., 75±5% RH
Procedure: Diffraction patterns were obtained in the range of 3 to 40° 2θ using a X-ray powder diffractometer, and the X-ray powder diffraction analysis conditions were as follows. • Instrument: BrukerA26X1 D2 Phaser • Time per step: 0.5 s • Scanning method: Continuous PSD fast • Detector: Lynxeye (1D mode) (2) Differential Scanning Calorimetry (DSC)
as §1

Molecule	purity by high-performance liquid chromatography ([1]; time 0 week) [%]	purity by high-performance liquid chromatography ([1]; time 2 weeks) [%]	purity by high-performance liquid chromatography ([1]; time 4 weeks) [%]	purity by high-performance liquid chromatography ([1]; time 4 weeks, listed as eribulin mesylate) [%]	deliquescence during the hygroscopicity test ([2]; DVS, 25° C., 2 to 98% RH)	change in properties ([3]; 2nd week)	change in properties ([3]; 4th week)	solid state over time in the stability test ([3]; over time)	X-ray powder diffraction analysis result (solid form) ([3]; time 0 week)	X-ray powder diffraction analysis result (solid form) ([3]; time 0 week, listed as eribulin mesylate)	X-ray powder diffraction analysis result (solid form) ([3]; time 2 weeks)	X-ray powder diffraction analysis result (solid form) ([3]; time 4 weeks)	decrease in purity (increase in related substances) ([1]; 40±2° C., during 4 weeks) [%]	stability to heat and humidity compared with eribulin mesylate ([1]; 40±2° C., up to 4 weeks, Ammonium Salt)	hygroscopicity compared with amorphous eribulin mesylate [2]	stability to moisture compared with amorphous eribulin mesylate ([2]; 25° C.)	crystalline form after the hygroscopicity test ([2]; DVS, 25° C., 2 to 98% RH)	Hygroscopicity (EP standard (25° C., 80% RH)) ([2]; DVS, 25° C.) [%]	change in properties ([3]; whole stability test period (4 weeks))
C=C1C[C@@H]2CC[C@@]34C[C@H]5O[C@H]6[C@@H](O3)[C@H]3O[C@H](CC[C@@H]3O[C@H]6[C@H]5O4)CC(=O)C[C@@H]3[C@@H](OC)[C@@H](C[C@H](O)CN)O[C@H]3C[C@H]3O[C@@H](CC[C@@H]1O2)C[C@@H](C)C3=C.CS(=O)(=O)O [Eribulin mesylate]	99.66	88.00	7.30	7	deliquescence was observed	the solid deliquesced and the color changed to yellow	the deliquescent state was maintained and the color changed from yellow to brown	deliquescence was observed	amorphous	amorphous solid	deliquescence	deliquescence							
C=C1C[C@@H]2CC[C@@]34C[C@H]5O[C@@H]6C(O[C@H]7CC[C@H](CC(=O)C[C@@H]8[C@@H](OC)[C@@H](C[C@H](O)CN)O[C@H]8C[C@H]8O[C@@H](CC[C@@H]1O2)C[C@@H](C)C8=C)O[C@@H]7[C@@H]6O3)[C@H]5O4 [Example 2, Eribulin Edisylate Ammonium Salt]	99.73	99.50	99.35						crystalline		maintain	maintain	≤ 0.5	excellent stability to heat and humidity; also recorded: more stable to heat and humidity	lower hygroscopicity	superior stability to moisture	initial crystalline form was maintained	5.4	No change in properties
Eribulin Edisylate Cyclohexylamine Salt [Example 5]															lower hygroscopicity	superior stability to moisture	initial crystalline form was maintained	5.2	
Eribulin Edisylate Dicyclohexylamine Salt [Example 7]															lower hygroscopicity	superior stability to moisture	initial crystalline form was maintained	5.6	
